Laboratory results taken from article PMC3671111, “A Phase I, open-label, randomized, crossover study in three parallel groups to evaluate the effect of Rifampicin, Ketoconazole, and Omeprazole on the pharmacokinetics of THC/CBD oromucosal spray in healthy volunteers” (SpringerPlus, 2013).
Values joined by “and” are separate entries in the source; they are usually repeats but may differ in a detail not shown here. Equal values may be shown once. Marks after values point to notes of the source that are not given here.

Tests used:
[1] = male, human, in vivo, 5 days
[2] = Phase I drug-drug interaction PK, Group 2: THC/CBD spray alone or with ketoconazole, plasma by GC-MS; conditions: for AUC(0-inf) / AUC(0-t) / CL/F / Cmax / Kel / Varea/F / t½ / Tmax: plasma; for AUC(0-inf) / AUC(0-t) / CL/F / Cmax / Kel / Varea/F / t½: mean (SD); for Tmax: median (range)
Procedure: (§1) Subjects received rifampicin on Days 1-9. […] Subjects received ketoconazole on Days 1-4.
(§2) Blood samples were collected at specified times and stored on ice (except rifampicin PK samples which were stored in iced water) prior to processing and storage. Plasma samples were separated by centrifugation (approximately 2500 rpm × 15 minutes at 4°C). Samples were stored in 4 mL amber glass screw top glass vials with PTFE lined screw caps labelled with Guys Drug Research (Quintiles Limited) labels. The aliquots were stored in clearly labelled containers in a freezer set at or below -20°C, until shipped for assay. Samples were shipped on dry ice at the appropriate time-points.
(§3) The assay validation was undertaken by Advanced Bioanalytical Service Laboratories (London, UK), who developed the technique after reviewing the literature, which was based on the methodology adopted by three different groups (Foltz et al. [1983]; Goodall & Basteyns [1995]; Kemp et al. [1995]), and designed with reference to FDA guidelines for industry (FDA Guidance for Industry [2012]). The method utilised protein precipitation, solvent extraction and derivatisation for the sample preparation and then sample analysis by capillary gas chromatography and detection by a mass spectrometer (GC-MS). The validation procedure investigated the calibration model with the best regression fit over the concentration range 0.1 - 100 ng/mL for CBD, THC and 11-OH-THC, as well as precision and accuracy of the method, stability, carry-over, and specificity.
(§4) Human plasma from healthy volunteers was used to prepare the standards and quality control (QC) samples, with analytes extracted using hexane/ethyl acetate (7:1 ratio), derivatised with N,O-Bis(trimethylsilyl)trifluoroacetamide. Analytic grade THC (Sigma, UK), CBD (Sigma, UK) and 11-OH-THC (Radian International and Cerillant, UK) were obtained, and three sets of CBD, THC and 11-OH-THC were used to support the study. Deuterated THC-d3 (Sigma, UK) was used as the internal standard. The GC-MS equipment was a Hewlett Packard 6890 Gas Chromatograph attached to a Hewlett Packard 5973 Mass Selective Detector. Data handling was carried out using an MS Chemstation System and the peak area ratio of the analytes to the internal standard was calculated in Excel (2000). The concentrations were calculated from the ratio data using least squares ln(y) on ln(x) regression performed in Excel (2000), and were then checked manually. Regression analysis was undertaken to find the regression model that best described the calibration data (for details, see ([Miller & Miller 1992])).
(§5) A 0.5 mL aliquot of test sample, QC or blank plasma was placed into a test tube. The blank plasma was spiked with 50 μL of the appropriate standard solution to produce the calibration standards. 50 μL of the internal standard was added to each test tube. The samples were then diluted by the addition of 500 μL of 0.1% (w/v) ascorbic acid and the protein precipitated by the addition of 1.0 mL of acetonitrile. The proteins were removed by centrifugation and the supernatant concentrated to 1 mL using nitrogen at 50 °C. The samples were then basified by the addition of 300 μL of 5M sodium hydroxide and the analytes extracted by the addition of 2.0 mL of 7:1 hexane:ethyl acetate. After mixing for 16 minutes the tubes were centrifuged and the top layer transferred into clean 3 dram vials. The solvent was removed using nitrogen at 70 °C and the dried extract resuspended in 100 μL of BSTFA and transferred to microvials, capped and placed at 70 °C for 30 minutes to derivatise the analytes. The microvials were then cooled and loaded onto the autosampler tray for analysis where 1 μL was injected onto the GC-MS system.

[3] = Phase I drug-drug interaction PK, Group 1: THC/CBD spray alone or with rifampicin, plasma by GC-MS; conditions: for AUC(0-inf) / AUC(0-t) / CL/F / Cmax / Kel / Varea/F / t½ / Tmax: n = 12, plasma; for AUC(0-inf) / AUC(0-t) / CL/F / Cmax / Kel / Varea/F / t½: mean (SD); for Tmax: median (range)
Procedure: as §1, §2, §3, §4, §5

[4] = Phase I drug-drug interaction PK, Group 3: THC/CBD spray alone or with omeprazole, plasma by GC-MS; conditions: for AUC(0-inf) / AUC(0-t) / CL/F / Cmax / Kel / Varea/F / t½ / Tmax: n = 12, plasma; for AUC(0-inf) / AUC(0-t) / CL/F / Cmax / Kel / Varea/F / t½: mean (SD); for Tmax: median (range); for Cmax and AUC % Co-efficient of Variation (CV%) range: inter-subject variability
Procedure: as §1, §2, §3, §4, §5

[5] = Ketoconazole and THC/CBD spray vs THC/CBD spray alone, no-interaction range 0.80 to 1.25
[6] = THC/CBD spray 4 sprays and ketoconazole 400 mg at end of 5-day dosing period, n = 11
[7] = THC/CBD spray alone, single dose 4 sprays (10.8/10 mg), ketoconazole group, n = 12
[8] = THC/CBD spray co-administered with ketoconazole vs alone
[9] = Rifampicin and THC/CBD spray vs THC/CBD spray alone, no-interaction range 0.80 to 1.25
[10] = THC/CBD spray 4 sprays and rifampicin 600 mg after repeated daily dosing
[11] = THC/CBD spray alone, single dose 4 sprays (10.8/10 mg), rifampicin group
[12] = THC/CBD spray co-administered with rifampicin vs alone
[13] = Omeprazole and THC/CBD spray vs THC/CBD spray alone, no-interaction range 0.80 to 1.25
[14] = THC/CBD spray 4 sprays and omeprazole 40 mg at end of 6-day dosing period
[15] = THC/CBD spray alone, single dose 4 sprays (10.8/10 mg), omeprazole group
[16] = THC/CBD spray co-administered with omeprazole vs alone

COc1ccc2[nH]c([S+]([O-])Cc3ncc(C)c(OC)c3C)nc2c1 (stereo not drawn) [Omeprazole, omeprazole]
Dizziness (TEAE) [1]: 0 No. of subjects (%)
Dizziness postural (TEAE) [1]: 0 No. of subjects (%)
Dry mouth (TEAE) [1]: 0 No. of subjects (%)
Headache (TEAE) [1]: 1 (8) No. of subjects (%)
Somnolence (TEAE) [1]: 0 No. of subjects (%)

CCCCCc1cc(O)c2c(c1)OC(C)(C)[C@@H]1CCC(C)=C[C@@H]21 [THC, Δ9-tetrahydrocannabinol]
Geometric mean ratio of AUC(0-inf), point estimate [2, 5]: 1.840
Geometric mean ratio of AUC(0-t), point estimate [2, 5]: 1.770
Geometric mean ratio of Cmax, point estimate [2, 5]: 1.252
AUC(0-inf) [2, 6]: 16.76 (13.80) h*ng/mL
AUC(0-t) [2, 6]: 15.38 (13.43) h*ng/mL
CL/F [2, 6]: 920 L/h and 920 (450) L/h
Cmax [2, 6]: 3.36 (1.65) ng/mL
Kel [2, 6]: 0.189 (0.078) h^-1
Varea/F [2, 6]: 5111 (2221) L
t½ [2, 6]: 4.43 (2.19) h
Tmax [2, 6]: 1.75 (1.00-3.00) h
AUC(0-inf) [2, 7]: 9.22 (5.94)^a h*ng/mL
AUC(0-t) [2, 7]: 8.19 (5.67) h*ng/mL
CL/F [2, 7]: 1504 L/h and 1504 (688)^a L/h
Cmax [2, 7]: 2.65 (1.32) ng/mL
Kel [2, 7]: 0.258 (0.092)^a h^-1
Varea/F [2, 7]: 6328 (4164)^a L
t½ [2, 7]: 3.07 (1.31)^a h
Tmax [2, 7]: 1.50 (0.75-6.00) h
% change in mean Tmax [2, 8]: +17%
% change in t1/2 [2, 8]: +44%
Change in mean Cmax ([2]; THC/CBD spray with ketoconazole vs THC/CBD spray alone): +27%
Change in mean CL/F ([2]; co-administered with ketoconazole vs THC/CBD spray alone): -39%
Substrate for the isoenzyme CYP3A4 (conclusion from ketoconazole interaction) ([2]; suggested by increased exposure with ketoconazole): substrates
Geometric mean ratio of AUC(0-inf), point estimate [3, 9]: 0.761
Geometric mean ratio of AUC(0-t), point estimate [3, 9]: 0.711
Geometric mean ratio of Cmax, point estimate [3, 9]: 0.614
AUC(0-inf) [3, 10]: 7.53 (2.99) h*ng/mL
AUC(0-t) [3, 10]: 6.53 (2.70) h*ng/mL
CL/F [3, 10]: 1595 L/h and 1595 (473) L/h
Cmax [3, 10]: 1.88 (1.07) ng/mL
Kel [3, 10]: 0.189 (0.071) h^-1
Varea/F [3, 10]: 10297 (5888) L
t½ [3, 10]: 4.93 (3.91) h
Tmax [3, 10]: 1.75 (1.25-2.57) h
AUC(0-inf) [3, 11]: 9.86 (3.35)^a h*ng/mL
AUC(0-t) [3, 11]: 9.10 (2.98) h*ng/mL
CL/F [3, 11]: 1207 L/h and 1207 (373)^a L/h
Cmax [3, 11]: 2.94 (1.21) ng/mL
Kel [3, 11]: 0.197 (0.093)^a h^-1
Varea/F [3, 11]: 7625 (4326)^a L
t½ [3, 11]: 4.68 (3.42) ^a h
Tmax [3, 11]: 1.01 (0.50-6.02) h
% change in mean t1/2 [3, 12]: +5%
% change in median Tmax [3, 12]: +73%
Change in mean Cmax ([3]; THC/CBD spray with rifampicin vs THC/CBD spray alone): -36%
Change in mean CL/F ([3]; after multiple dose rifampicin treatment vs THC/CBD spray alone): +32%
Geometric mean ratio of AUC(0-inf), point estimate [4, 13]: 0.962
Geometric mean ratio of AUC(0-t), point estimate [4, 13]: 0.964
Geometric mean ratio of Cmax, point estimate [4, 13]: 1.125
AUC(0-inf) [4, 14]: 8.10 (4.78) h*ng/mL
AUC(0-t) [4, 14]: 7.41 (4.75) h*ng/mL
CL/F [4, 14]: 2284 (2520) L/h
Cmax [4, 14]: 2.48 (1.06) ng/mL
Kel [4, 14]: 0.357 (0.218) h^-1
Varea/F [4, 14]: 6052 (3384) L
t½ [4, 14]: 2.37 (0.92) h
Tmax [4, 14]: 1.25 (1.00-1.75) h
AUC(0-inf) [4, 15]: 9.39 (8.81) h*ng/mL
AUC(0-t) [4, 15]: 8.76 (8.62) h*ng/mL
CL/F [4, 15]: 2161 (1990) L/h
Cmax [4, 15]: 2.50 (1.85) ng/mL
Kel [4, 15]: 0.305 (0.109) h^-1
Varea/F [4, 15]: 6889 (5296) L
t½ [4, 15]: 2.65 (1.25) h
Tmax [4, 15]: 1.25 (0.77-3.02) h
Plasma concentrations and PK parameters compared with THC/CBD spray alone ([4]; THC/CBD spray at end of 6-day omeprazole dosing): similar
% change in Tmax [4, 16]: 0%
% change in t1/2 [4, 16]: -11%
Differences in CL/F on co-administration with omeprazole ([4]; THC/CBD spray with omeprazole vs alone): No significant differences
Substrate for the isoenzyme CYP2C19 (conclusion from omeprazole interaction) ([4]; at the clinically relevant dose of THC/CBD spray investigated): not substrates
Cmax and AUC % Co-efficient of Variation (CV%) range ([4]; THC/CBD spray alone, omeprazole group): 74-98%
Cmax and AUC % Co-efficient of Variation (CV%) range ([4]; THC/CBD spray in combination with omeprazole): 43-64%
